From publication PMC3755010 (Bioorganic & medicinal chemistry letters, 2012)

Assays:
[1] = molecular target: rat mGlu5 receptor (Rattus norvegicus, UniProt P31424); assay: Calcium mobilization assay in HEK293 cells expressing the rat mGlu5 receptor; format: cell-based; conditions: for loss in functional activity versus 6: relative to 6 (VU0357121); for improvement in potency versus 8b: relative to 8b; for EC50 (nM): calcium mobilization, HEK293 cells expressing rat mGlu5
[2] = molecular target: T1, mGlu5 MPEP allosteric binding site (Rattus norvegicus, UniProt P31424); assay: [3H]methoxyPEPy binding
T1 sequence (P31424 21-1203): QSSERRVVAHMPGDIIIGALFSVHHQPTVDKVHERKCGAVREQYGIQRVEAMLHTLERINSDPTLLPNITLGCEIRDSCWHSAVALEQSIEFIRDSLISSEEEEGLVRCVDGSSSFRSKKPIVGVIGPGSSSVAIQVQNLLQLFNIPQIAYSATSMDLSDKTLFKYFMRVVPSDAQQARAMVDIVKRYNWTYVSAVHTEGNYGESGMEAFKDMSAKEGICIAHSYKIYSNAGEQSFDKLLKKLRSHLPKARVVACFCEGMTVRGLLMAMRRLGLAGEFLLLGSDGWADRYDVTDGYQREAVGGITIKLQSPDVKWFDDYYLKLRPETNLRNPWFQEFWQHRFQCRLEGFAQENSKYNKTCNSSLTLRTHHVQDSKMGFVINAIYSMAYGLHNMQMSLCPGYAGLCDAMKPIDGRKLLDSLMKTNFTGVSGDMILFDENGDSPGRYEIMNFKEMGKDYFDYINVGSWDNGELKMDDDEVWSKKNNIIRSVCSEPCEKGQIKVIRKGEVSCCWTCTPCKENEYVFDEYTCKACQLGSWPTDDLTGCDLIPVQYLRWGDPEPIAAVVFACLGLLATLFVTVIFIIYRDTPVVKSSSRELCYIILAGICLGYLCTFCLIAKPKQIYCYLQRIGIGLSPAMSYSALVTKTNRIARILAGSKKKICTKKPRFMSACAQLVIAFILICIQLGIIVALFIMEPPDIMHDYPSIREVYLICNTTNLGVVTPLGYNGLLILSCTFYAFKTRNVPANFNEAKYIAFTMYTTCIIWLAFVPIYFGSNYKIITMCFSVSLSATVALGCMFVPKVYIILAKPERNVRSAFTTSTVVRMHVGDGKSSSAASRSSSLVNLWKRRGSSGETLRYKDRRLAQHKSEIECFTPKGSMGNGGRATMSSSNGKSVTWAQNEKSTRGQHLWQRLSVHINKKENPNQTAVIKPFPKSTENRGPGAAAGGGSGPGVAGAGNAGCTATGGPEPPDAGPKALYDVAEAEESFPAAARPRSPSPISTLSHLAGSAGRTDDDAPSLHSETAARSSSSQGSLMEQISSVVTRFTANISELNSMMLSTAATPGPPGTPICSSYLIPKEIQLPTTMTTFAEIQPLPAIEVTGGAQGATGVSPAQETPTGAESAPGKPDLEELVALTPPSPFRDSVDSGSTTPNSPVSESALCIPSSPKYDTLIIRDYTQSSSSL

[3] = In vitro oxidative metabolism; format: in vitro ADME, rat
[4] = molecular target: human mGlu5 receptor (Homo sapiens, UniProt P41594); assay: Functional assay in lower expressing human mGlu5 receptor cell line; format: cell-based
Chain of human mGlu5 receptor (P41594 21-1212): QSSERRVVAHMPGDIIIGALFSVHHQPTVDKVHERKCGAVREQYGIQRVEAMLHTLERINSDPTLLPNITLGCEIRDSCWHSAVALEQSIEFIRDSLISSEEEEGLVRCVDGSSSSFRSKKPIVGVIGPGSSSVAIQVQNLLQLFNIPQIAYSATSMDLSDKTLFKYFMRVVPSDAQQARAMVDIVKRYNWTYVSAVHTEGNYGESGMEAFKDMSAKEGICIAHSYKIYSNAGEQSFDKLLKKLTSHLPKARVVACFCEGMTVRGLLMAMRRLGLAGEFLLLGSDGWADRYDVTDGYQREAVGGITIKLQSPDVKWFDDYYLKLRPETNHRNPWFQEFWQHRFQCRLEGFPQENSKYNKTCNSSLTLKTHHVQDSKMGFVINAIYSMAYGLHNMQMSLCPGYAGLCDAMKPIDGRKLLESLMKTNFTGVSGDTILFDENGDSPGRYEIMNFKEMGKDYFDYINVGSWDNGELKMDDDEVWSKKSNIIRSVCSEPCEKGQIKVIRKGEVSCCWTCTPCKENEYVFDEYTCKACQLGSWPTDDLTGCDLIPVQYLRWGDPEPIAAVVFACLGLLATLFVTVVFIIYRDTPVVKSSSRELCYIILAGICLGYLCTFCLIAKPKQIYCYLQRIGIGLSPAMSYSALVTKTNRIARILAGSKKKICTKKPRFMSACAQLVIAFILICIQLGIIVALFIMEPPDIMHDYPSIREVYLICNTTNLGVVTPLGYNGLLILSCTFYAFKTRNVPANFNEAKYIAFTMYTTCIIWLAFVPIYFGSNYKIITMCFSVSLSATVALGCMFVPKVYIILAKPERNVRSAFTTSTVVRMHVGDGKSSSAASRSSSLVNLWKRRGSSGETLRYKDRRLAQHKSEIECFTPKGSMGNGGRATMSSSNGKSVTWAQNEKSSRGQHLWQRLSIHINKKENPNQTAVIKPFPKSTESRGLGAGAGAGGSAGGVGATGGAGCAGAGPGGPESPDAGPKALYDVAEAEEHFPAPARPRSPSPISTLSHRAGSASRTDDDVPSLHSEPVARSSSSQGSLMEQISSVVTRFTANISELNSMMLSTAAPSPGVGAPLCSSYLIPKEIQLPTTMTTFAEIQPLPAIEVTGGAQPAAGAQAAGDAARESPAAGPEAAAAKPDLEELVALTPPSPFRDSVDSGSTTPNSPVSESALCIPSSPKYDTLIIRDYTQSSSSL

[5] = molecular target: wild-type rat mGlu5 receptor (Rattus norvegicus, UniProt P31424); assay: Fold-shift of glutamate concentration-response curve at wild-type receptor; format: cell-based; conditions: 1 μM compound
Chain of wild-type rat mGlu5 receptor (P31424 21-1203): as the sequence (P31424 21-1203) above

[6] = tested on: mGlu5 MPEP site sensitive mutants (P654F, T780A, A809V); assay: Fold-shift of glutamate CRC at MPEP site sensitive point mutants; format: cell-based; conditions: 1 μM compound, compared to wild-type rat mGlu5
[7] = Non-crossover in vivo pharmacokinetic studies in rats; parameters: species or system rat
[8] = Reversal of amphetamine-induced hyperlocomotion in rats; format: in vivo, rat; conditions: rat, brain (unbound), po, 100 mg/kg
[9] = tested on: amphetamine-induced hyperlocomotion; assay: as above; format: in vivo, rat; conditions: rats, 100 mg/kg p.o., vehicle 20% β-CD
[10] = molecular target: T1, mGlu5 MPEP allosteric binding site; conditions: cited from earlier work

Chain of rat mGlu5 receptor (P31424 21-1203): as above

SMILES: CCCCOc1ccc(C(=O)NC2CCCCC2)cc1 [7a]
- loss in functional activity versus 6 [1]: > 15 fold

SMILES: CCCCOc1ccc(C(=O)NC2CCC2)cc1 [7c]
- loss in functional activity versus 6 [1]: > 15 fold

SMILES: CCCCOc1ccc(C(=O)Nc2ccc(F)cc2F)cn1 [8a]
- loss in functional activity versus 6 [1]: 22 fold

SMILES: CCCCCOc1ccc(C(=O)NC2CCCCC2)cn1 [8d]
- improvement in potency versus 8b [1]: fivefold

SMILES: CCCOc1ccc(C(=O)NC2CCCCC2)cn1 [8e]
- EC50 (nM) [1]: complete loss of potentiation

SMILES: CCCC(C)Oc1ccc(C(=O)NC2CCCCC2)cn1 (stereo not shown) [8f]
- EC50 (nM) [1]: unproductive

SMILES: CCC(C)COc1ccc(C(=O)NC2CCCCC2)cn1 (stereo not shown) [8g]
- improvement in potency versus 8b [1]: twofold

SMILES: O=C(NC1CCCCC1)c1ccc(OCc2ccccc2)nc1 [8k]
- estimated divergence of MPEP site interaction from functional activity ([2]; 21% displacement at 10 μM versus functional EC50): > 100 fold
- oxidative metabolism in rat microsomal incubations ([3]; soft-spot analysis, rat microsomes): extensive oxidative metabolism

SMILES: O=C(NC1CCCCC1)c1ccc(OCc2ccc(F)cc2)nc1 [8m]
- loss in activity relative to 8k ([1]; relative to 8k): sevenfold

SMILES: O=C(N[C@@H](C1CC1)C(F)(F)F)c1ccc(OCc2cccc(F)c2)nc1 [8u]
- metabolic stability in vitro ([3]; data not shown): relatively stable metabolically in vitro

SMILES: C[C@@H](NC(=O)c1ccc(OCc2cccc(F)c2)nc1)C(C)(C)C [8v]
- increase in activity over cyclohexyl analog R-8t ([1]; high expressing rat receptor HEK cell line): twofold
- displacement of the MPEP-site radioligand [3H]-methoxyPEPy (extent) [2]: full displacement
- agonism activity for compound alone [4]: no detected agonism activity
- shift of the glutamate CRC [5]: fivefold
- effect of MPEP-site point mutations on shift of the glutamate CRC [6]: reduced the ability
- clearance ([7]; rat, plasma, iv, 1 mg/kg): 13.7 mL/min/kg
- first-pass effect (Ehep) ([7]; rats, snapshot oral PK, portal vein vs plasma): 0.41
- concentration at 90 min [8]: ~74 nM
- reversal of amphetamine-induced hyperlocomotion [9]: robust effects in reversal of hyperlocomotion

SMILES: C[C@@H](NC(=O)c1ccc(OCc2cccc(F)c2)cc1)C(C)(C)C [8w]
- EC50 relative to 8v ([1]; direct comparator to 8v): ~ 2.5 fold

SMILES: CCCCOc1ccc(C(=O)Nc2ccc(F)cc2F)cc1 [compound 6]
- displacement of the MPEP-site ligand [3H]methoxyPEPy [10]: not observed to displace
